# Source: patent US5011949A, “Ascorbic acid derivative” (Nippon Hypox Laboratories, Inc., priority 1989, dated 1991)
# Experiment: Antioxidant action examined by using stable free radicals: reduction activity of DPPH (M. S. Blois method), absorbance at 517 nm
# Format: biochemical
# Settings: 1 mM DPPH in ethanol, after 20 minutes, difference from solvent control (0.5% or less DMF), read-out: 50% radical eliminating concentration
# Method: Test Example 1 (Antioxidant Action Examined by Using Stable Free Radicals)
# Reduction activity of α,α-diphenyl-β-picrylhydrazyl (DPPH) which was a stable free radical was examined according to the M. S. Blois method (nature, vol. 181, page 1199, 1958) and used as an index to antioxidant action. Thus, specimens were added to 3 ml of a 1 mM DPPH solution in ethanol, and absorbance at a wavelength of 517 nm was measured using a spectrophotometer after 20 minutes. The difference in absorbance from the solvent control [0.5% or less of dimethylformamide (DMF)]was taken as the reduction activity.
row,Compound,IC50 [µM]
1,CCOC(=O)C(C)OC1=C(O)[C@@H]([C@@H](O)CO)OC1=O (stereo partly shown) [Compound 308],25
2,"CC(=O)COC1=C(O)[C@@H]([C@@H](O)CO)OC1=O [Compound 310, L-2-O-methylcarbomethylascorbic acid]",17
3,O=C(O)CCCOC1=C(O)[C@@H]([C@@H](O)CO)OC1=O [Compound 307],33
4,CCCCCCCCCCCCCCCCCCOC1=C(O)[C@@H]([C@@H](O)CO)OC1=O [Compound 301],28
5,CCOC(=O)CCCOC1=C(O)[C@@H]([C@@H](O)CO)OC1=O [Compound 306],29
6,CCCCOC(=O)COC1=C(O)[C@@H]([C@@H](O)CO)OC1=O [Compound 309],28
7,CCCCCCCCCCCCOC1=C(O)[C@@H]([C@@H](O)CO)OC1=O [Compound 302],26
8,O=C1O[C@H]([C@@H](O)CO)C(O)=C1OCc1ccccc1 [Compound 305],29

# Other lines, results leading:
row,IC50 [µM],Compound
1,17,CCCCOC1=C(O)[C@@H]([C@@H](O)CO)OC1=O [Compound 304]
2,14,"CC(=O)COC1=C(O)[C@@H]([C@@H]2COC(C)(C)O2)OC1=O [Compound 206, L-5,6-O-isopropylidene-2-O-methylcarbomethylascorbic acid]"
3,14,CCCCOC1=C(O)[C@@H]([C@@H]2COC(C)(C)O2)OC1=O [Compound 201]
4,30,CCCCOC(=O)COC1=C(O)[C@@H]([C@@H]2COC(C)(C)O2)OC1=O [Compound 205]
5,28,CC1(C)OC[C@@H]([C@H]2OC(=O)C(OCCCC(=O)O)=C2O)O1 [Compound 203]
6,16,CCOC(=O)CCCOC1=C(O)[C@@H]([C@@H]2COC(C)(C)O2)OC1=O [Compound 202]
7,26,CCCCCCCCOC1=C(O)[C@@H]([C@@H](O)CO)OC1=O [Compound 303]
8,25,CCOC(=O)C(C)OC1=C(O)C(C2COC(C)(C)O2)OC1=O (stereo not shown) [Compound 204]

# Experiment: Effects on formazan formation in the xanthine-xanthine oxidase-Nitrotetrazolium Blue system (superoxide anion radicals)
# Format: biochemical
# Settings: 0.5 mM; pH 7.8, 30° C.; 10 min
# Method: Test Example 2 (Effects on Formazan Formation in the Xanthine-xanthine Oxidase-Nitrotetrazolium Blue System)
# Specimens were added to a 0.05 M phosphoric acid buffer solution (pH 7.8) containing xanthine, EDTA 2Na and Nitrotetrazolium Blue (NTB) so as to provide the respective final concentrations of 5×10^-5 M, 1×10^-4 M and 5×10^-4 M and warmed at 30° C. for 30 minutes. Xanthine oxidase (manufactured by Sigma Corp.) was added, and the resulting mixtures were warmed at 30° C. for 10 minutes to colorimetrically determine formazan formed by superoxide anion radicals. The inhibition ratio of formazan formation was determined from the results at concentrations of 0.5 mM and 4 mM of each specimen.
row,Inhibition ratio (%) of formazan formation [%],Compound
1,17.8,"CC(=O)COC1=C(O)[C@@H]([C@@H]2COC(C)(C)O2)OC1=O [Compound 206, L-5,6-O-isopropylidene-2-O-methylcarbomethylascorbic acid]"
2,9.1,CCCCOC1=C(O)[C@@H]([C@@H]2COC(C)(C)O2)OC1=O [Compound 201]

# Same assay, conditions: 4 mM; pH 7.8, 30° C.; 10 min
row,Inhibition ratio (%) of formazan formation [%],Compound
1,55.5,"CC(=O)COC1=C(O)[C@@H]([C@@H]2COC(C)(C)O2)OC1=O [Compound 206, L-5,6-O-isopropylidene-2-O-methylcarbomethylascorbic acid]"
2,19.1,CCCCOC1=C(O)[C@@H]([C@@H]2COC(C)(C)O2)OC1=O [Compound 201]

# Same assay, conditions: from Table-4, 0.5 mM and 4 mM
row,inhibition of formazan formation (in words),Compound
1,remarkably inhibited formazan formation,"CC(=O)COC1=C(O)[C@@H]([C@@H]2COC(C)(C)O2)OC1=O [Compound 206, L-5,6-O-isopropylidene-2-O-methylcarbomethylascorbic acid]"
2,remarkably inhibited formazan formation,CCCCOC1=C(O)[C@@H]([C@@H]2COC(C)(C)O2)OC1=O [Compound 201]
